Measurements from PMC10139140, “Synthesis of Novel 2-(Cyclopentylamino)thiazol-4(5H)-one Derivatives with Potential Anticancer, Antioxidant, and 11β-HSD Inhibitory Activities” (International Journal of Molecular Sciences, 2023).

Tests used:
[1] = tested on: human breast carcinoma (MDA-MB-231); test: MTS metabolic activity assay, MDA-MB-231 cells; format: cell-based; settings: 72 h; for viability at 10 µM / viability at 20 µM / viability at 50 µM / viability at 100 µM / viability at 200 µM / viability at 300 µM / viability at 500 µM: Homo sapiens, read-out: Cell metabolic activity (MTS), % of untreated control; for viability at 10 µM: MDA-MB-231, 10 µM; for viability at 20 µM: MDA-MB-231, 20 µM; for viability at 50 µM: MDA-MB-231, 50 µM; for viability at 100 µM: MDA-MB-231, 100 µM; for viability at 200 µM: MDA-MB-231, 200 µM; for viability at 300 µM: MDA-MB-231, 300 µM; for viability at 500 µM: MDA-MB-231, 500 µM
Protocol: (§1) The BJ (CRL-2522), Caco-2 (HTB-37), PANC-1 (CRL-1469), U-118 MG (HTB-15), SK-MEL-30 (ACC 151), and MDA-MB-231 (HTB-26) cell lines were purchased from ATCC (Manassas, VA, USA) or DSMZ (Braunschweig, GERMANY). Cells were cultured in accordance with manufacturers' recommendations in a DMEM, MEM, or RPMI-1640 (Sigma, Saint Louis, MO, USA; Gibco, Waltham, MA, USA), supplemented with 10% FBS, except for Caco-2 (20%) (Thermo Fisher Scientific, Waltham, MA, USA) and 1% antibiotic mix solution (penicillin, streptomycin; Thermo Fisher Scientific, Waltham, MA, USA) in a humidified atmosphere with 5% CO2 at 37 °C. All cell lines were cultured in T75 cell culture flasks or cell culture dishes to reach 80–90% confluency and seeded at a standard density of 5 × 10^3 cells/0.32 cm^2, except for BJ cells at 2 × 10^3 cells/0.32 cm^2.
(§2) The MTS ((MTS: 3-(4,5-dimethylthiazol-2-yl)-5-(3-carboxymethoxyphenyl)-2-(4-sulfophenyl)-2H-tetrazolium)) assay was performed following previously reported method. Briefly, cells were seeded at a standard density into 96-well flat-bottom plates and incubated for 24 h, followed by the treatment. The various concentrations of compounds were prepared and treated for the next 72 h. MTS solution was added for 3h and incubated at standard conditions, protected from light. Finally, the absorbance was read at […] and 620 nm wavelengths using a Synergy H1 microplate reader (BioTek, Santa Clara, CA, USA). The results are presented as %, while untreated control cells were considered 100%.

glioma (U-118 MG) = test: MTS metabolic activity assay, U-118 MG cells; format: cell-based; settings: 72 h; for viability at 10 µM / viability at 20 µM / viability at 50 µM / viability at 100 µM / viability at 200 µM / viability at 300 µM / viability at 500 µM: Homo sapiens, U-118-MG, U118-MG, read-out: Cell metabolic activity (MTS), % of untreated control
Protocol: as §1, §2

[2] = tested on: skin melanoma (SK-MEL-30); test: MTS metabolic activity assay, SK-MEL-30 cells; format: cell-based; settings: 72 h; for viability at 10 µM / viability at 20 µM / viability at 50 µM / viability at 100 µM / viability at 200 µM / viability at 300 µM / viability at 500 µM: Homo sapiens, read-out: Cell metabolic activity (MTS), % of untreated control; for viability at 10 µM: SK-MEL-30, 10 µM; for viability at 20 µM: SK-MEL-30, 20 µM; for viability at 50 µM: SK-MEL-30, 50 µM; for viability at 100 µM: SK-MEL-30, 100 µM; for viability at 200 µM: SK-MEL-30, 200 µM; for viability at 300 µM: SK-MEL-30, 300 µM; for viability at 500 µM: SK-MEL-30, 500 µM
Protocol: as §1, §2

[3] = tested on: human pancreatic carcinoma (PANC-1); test: MTS metabolic activity assay, PANC-1 cells; format: cell-based; settings: Homo sapiens, 72 h, read-out: Cell metabolic activity (MTS), % of untreated control; for viability at 10 µM: PANC-1, 10 µM; for viability at 20 µM: PANC-1, 20 µM; for viability at 50 µM: PANC-1, 50 µM; for viability at 100 µM: PANC-1, 100 µM; for viability at 200 µM: PANC-1, 200 µM; for viability at 300 µM: PANC-1, 300 µM; for viability at 500 µM: PANC-1, 500 µM
Protocol: as §1, §2

11β-HSD1 = biological target: T1, 11β-HSD1 (Homo sapiens, UniProt P28845); test: Inhibition of 11β-HSD1 (cortisone to cortisol, human liver microsomes, cortisol ELISA); format: biochemical; settings: for inhibition at 10 µM: 2.5 h, 37 °C
T1 construct: Human liver microsomes were used as a source of 11β-HSD1 enzyme; tissue XenoTech Lot No. 1410013; host or cells: pooled human liver microsomes, mixed gender
Protocol: The resulting solution with a final volume of 100 µL was incubated for 2.5 h at 37 °C. To stop the reaction, 10 µL of a 100 µM solution of 18β-glycyrrhetinic acid in PBS was added. The level of cortisol obtained in the reaction was measured by commercially available ELISA kit.
As a control, analogous tests without the addition of inhibitors were used. Half the inhibitory concentration (causing 50% reduction of cortisol or cortisone) was read from the chart.

BJ cells = test: MTS metabolic activity assay, BJ cells; format: cell-based; settings: Homo sapiens, 72 h, read-out: Cell metabolic activity (MTS), % of untreated control
Protocol: as §1, §2

11β-HSD2 = biological target: T2, 11β-HSD2 (Homo sapiens, UniProt P80365); test: Inhibition of 11β-HSD2 (cortisol to cortisone, human microsomes, cortisol ELISA); format: biochemical; settings: 2.5 h, 37 °C
T2 construct: Human liver microsomes were used as a source of 11β-HSD2 enzyme; tissue XenoTech Lot No. 1710160; host or cells: human kidney microsomes, mixed gender (method text says human liver microsomes)
T2 sequence (P80365 1-405): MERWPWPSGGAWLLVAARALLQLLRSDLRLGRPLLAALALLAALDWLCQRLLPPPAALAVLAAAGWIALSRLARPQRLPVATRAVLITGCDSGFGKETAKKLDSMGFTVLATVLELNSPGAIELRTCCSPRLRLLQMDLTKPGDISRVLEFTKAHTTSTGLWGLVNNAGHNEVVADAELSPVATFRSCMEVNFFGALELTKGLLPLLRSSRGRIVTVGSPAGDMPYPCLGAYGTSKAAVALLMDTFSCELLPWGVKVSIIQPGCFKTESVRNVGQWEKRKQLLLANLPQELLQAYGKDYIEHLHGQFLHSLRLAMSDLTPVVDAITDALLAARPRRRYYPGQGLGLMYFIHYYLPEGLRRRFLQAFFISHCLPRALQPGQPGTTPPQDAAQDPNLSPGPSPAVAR
Protocol: The resulting solution with a final volume of 100 µL was incubated for 2.5 h at 37 °C. […] The level of unreacted cortisol was measured by a commercially available ELISA kit.

[4] = tested on: human colon carcinoma (Caco-2); test: MTS metabolic activity assay, Caco-2 cells; format: cell-based; settings: Homo sapiens, 72 h, read-out: Cell metabolic activity (MTS), % of untreated control; for viability at 10 µM: Caco-2, 10 µM; for viability at 20 µM: Caco-2, 20 µM; for viability at 50 µM: Caco-2, 50 µM; for viability at 100 µM: Caco-2, 100 µM; for viability at 200 µM: Caco-2, 200 µM; for viability at 300 µM: Caco-2, 300 µM; for viability at 500 µM: Caco-2, 500 µM
Protocol: as §1, §2

T1 sequence (P28845 whole entry): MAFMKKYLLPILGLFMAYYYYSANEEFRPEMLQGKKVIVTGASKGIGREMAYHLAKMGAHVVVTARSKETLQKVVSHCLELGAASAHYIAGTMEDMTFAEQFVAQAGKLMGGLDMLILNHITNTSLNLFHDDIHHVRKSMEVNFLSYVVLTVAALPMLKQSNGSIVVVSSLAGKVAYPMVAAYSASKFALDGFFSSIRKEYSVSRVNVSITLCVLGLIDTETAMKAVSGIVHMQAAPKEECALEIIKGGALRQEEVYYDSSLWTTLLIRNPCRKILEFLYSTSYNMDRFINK

CCCC1SC(NC2CCCC2)=NC1=O (stereo not drawn) [Compound 3c, 2-(cyclopentylamino)-5-propylthiazol-4(5H)-one]
viability at 10 µM [1]: 101%
viability at 20 µM [1]: 102%
viability at 50 µM [1]: 99.1%
viability at 100 µM [1]: 97.4%
viability at 200 µM [1]: 88.4%
viability at 300 µM [1]: 75.9%
viability at 500 µM [1]: 55%
cell viability, decreases to ([1]; MDA-MB-231, higher concentrations, range given for the most effective substances together): 20–65%
viability at 10 µM (glioma (U-118 MG)): 111%
viability at 20 µM (glioma (U-118 MG)): 110%
viability at 50 µM (glioma (U-118 MG)): 110%
viability at 100 µM (glioma (U-118 MG)): 114%
viability at 200 µM (glioma (U-118 MG)): 113%
viability at 300 µM (glioma (U-118 MG)): 112%
viability at 500 µM (glioma (U-118 MG)): 112%
viability at 10 µM [2]: 101%
viability at 20 µM [2]: 102%
viability at 50 µM [2]: 101%
viability at 100 µM [2]: 101%
viability at 200 µM [2]: 95.9%
viability at 300 µM [2]: 75%
viability at 500 µM [2]: 45.5%
cell viability, decreases to ([2]; SK-MEL-30, higher concentrations, range given for the most effective substances together): 20–65%
viability at 10 µM [3]: 108%
viability at 20 µM [3]: 106%
viability at 50 µM [3]: 112%
viability at 100 µM [3]: 114%
viability at 200 µM [3]: 116%
viability at 300 µM [3]: 115%
viability at 500 µM [3]: 122%
IC50 (11β-HSD1): 2.75 ± 0.12 µM
inhibition at 10 µM (11β-HSD1): 56.6 ± 6.11%
viability at 10 µM (BJ cells): 98.2%
viability at 20 µM (BJ cells): 99.7%
viability at 50 µM (BJ cells): 102%
viability at 100 µM (BJ cells): 108%
viability at 200 µM (BJ cells): 112%
viability at 300 µM (BJ cells): 111%
viability at 500 µM (BJ cells): 115%
inhibition at 10 µM (11β-HSD2): 37.7 ± 6.07%
viability at 10 µM [4]: 88.1%
viability at 20 µM [4]: 86.6%
viability at 50 µM [4]: 87.6%
viability at 100 µM [4]: 82%
viability at 200 µM [4]: 86.1%
viability at 300 µM [4]: 83.1%
viability at 500 µM [4]: 68.5%

CC(C)C1SC(NC2CCCC2)=NC1=O (stereo not drawn) [Compound 3d, 2-(cyclopentylamino)-5-isopropylthiazol-4(5H)-one]
viability at 10 µM [1]: 92.8%
viability at 20 µM [1]: 91.2%
viability at 50 µM [1]: 95.5%
viability at 100 µM [1]: 94.4%
viability at 200 µM [1]: 86.6%
viability at 300 µM [1]: 81.8%
viability at 500 µM [1]: 57.6%
viability at 10 µM (glioma (U-118 MG)): 118%
viability at 20 µM (glioma (U-118 MG)): 111%
viability at 50 µM (glioma (U-118 MG)): 114%
viability at 100 µM (glioma (U-118 MG)): 112%
viability at 200 µM (glioma (U-118 MG)): 114%
viability at 300 µM (glioma (U-118 MG)): 115%
viability at 500 µM (glioma (U-118 MG)): 120%
highest increase in proliferation (cell metabolic activity) (glioma (U-118 MG); U-118 MG, range given for the named substances together): 115 to 144%
viability at 10 µM [2]: 97.2%
viability at 20 µM [2]: 97.1%
viability at 50 µM [2]: 97.7%
viability at 100 µM [2]: 102%
viability at 200 µM [2]: 92.3%
viability at 300 µM [2]: 78.2%
viability at 500 µM [2]: 59.4%
viability at 10 µM [3]: 107%
viability at 20 µM [3]: 103%
viability at 50 µM [3]: 105%
viability at 100 µM [3]: 116%
viability at 200 µM [3]: 113%
viability at 300 µM [3]: 119%
viability at 500 µM [3]: 118%
IC50 (11β-HSD1): 0.46 ± 0.07 µM
inhibition at 10 µM (11β-HSD1): 82.9 ± 2.62%
viability at 10 µM (BJ cells): 109%
viability at 20 µM (BJ cells): 106%
viability at 50 µM (BJ cells): 109%
viability at 100 µM (BJ cells): 110%
viability at 200 µM (BJ cells): 116%
viability at 300 µM (BJ cells): 118%
viability at 500 µM (BJ cells): 118%
inhibition at 10 µM (11β-HSD2): 38.6 ± 3.69%
viability at 10 µM [4]: 88.8%
viability at 20 µM [4]: 82.8%
viability at 50 µM [4]: 90.8%
viability at 100 µM [4]: 83.1%
viability at 200 µM [4]: 84.8%
viability at 300 µM [4]: 85.3%
viability at 500 µM [4]: 70.1%
